According to patent US8901036B2, “Combinations of phenylsulfonylurea herbicides and safeners” (Bayer Cropscience AG, priority 1994, dated 2014):

Key:
Corn = assay: Effect and selectivity in corn: phytotoxicity; type: in vivo; details: corn 4 leaves
Protocol: (§1) Various crop plants are grown in plastic pots with a diameter of 9 cm in a glasshouse to the stated stage and then treated with the particular herbicide or with a mixture of the herbicide and the safener by the post-emergence method. This entails the herbicide of the formula (A) and the compounds of the formula (B) being applied in the form of aqueous suspensions or emulsions with a water application rate which converts to 300 l/ha. 4 weeks after the treatment, the plants are assessed visually for every type of damage by the applied herbicides, taking particular account of the extent of persistent growth inhibition. The evaluation takes place in percentages (scale from 0 to 100%) compared with untreated controls.

SVFA = assay: Effect and selectivity in corn: herbicidal effect; type: in vivo
Protocol: as §1

ECCG = assay: Effect and selectivity in corn: herbicidal effect; type: in vivo, Echinochloa crus-galli; details: start of tillering (4 to 5 leaves)
Protocol: as §1

SOHA = assay: Effect and selectivity in corn: herbicidal effect; type: in vivo, Sorghum halepense; details: 3 leaves
Protocol: as §1

Barley = assay: Phytotoxicity of herbicide/safener combinations in cereals, glasshouse post-emergence; type: in vivo; details: no safener, 4 weeks after treatment
Protocol: as §1

Wheat = assay: as above; type: in vivo; details: no safener, 4 weeks after treatment
Protocol: as §1

ALMY = assay: Herbicidal activity on grasses, post-emergence; type: in vivo, Alopecurus myosuroides; details: no safener, 4-leaf stage
Protocol: as §1

APSP = assay: Herbicidal activity on grasses, post-emergence; type: in vivo, Apera spica-venti; details: no safener, 4-leaf stage
Protocol: as §1

AVFA = assay: Herbicidal activity on grasses, post-emergence; type: in vivo, Avena fatua; details: no safener, 4-leaf stage
Protocol: as §1

POAN = assay: Herbicidal activity on grasses, post-emergence; type: in vivo, Poa annua; details: no safener, 4-leaf stage
Protocol: as §1

Compound	Phytotoxicity or herbicidal effect in % Corn (Corn; dose 25 g AS/ha)	Phytotoxicity or herbicidal effect in % Corn (Corn; dose 50 g AS/ha)	Phytotoxicity or herbicidal effect in % Corn (Corn; dose 100 g AS/ha)	Phytotoxicity or herbicidal effect in % ECCG (ECCG; dose 25 g AS/ha)	Phytotoxicity or herbicidal effect in % ECCG (ECCG; dose 50 g AS/ha)	Phytotoxicity or herbicidal effect in % SOHA (SOHA; dose 25 g AS/ha)	Phytotoxicity or herbicidal effect in % SOHA (SOHA; dose 50 g AS/ha)	Phytotoxicity Barley (Barley; dose A 6 g AS/ha)	Phytotoxicity Barley (Barley; dose A 12 g AS/ha)	Phytotoxicity Barley (Barley; dose A 25 g AS/ha)	Phytotoxicity Wheat (Wheat; dose A 6 g AS/ha)	Phytotoxicity Wheat (Wheat; dose A 12 g AS/ha)	Phytotoxicity Wheat (Wheat; dose A 25 g AS/ha)	% effect on ALMY (ALMY; dose A 6 g AS/ha)	% effect on ALMY (ALMY; dose A 12 g AS/ha)	% effect on ALMY (ALMY; dose A 25 g AS/ha)	% effect on APSP (APSP; dose A 6 g AS/ha)	% effect on APSP (APSP; dose A 12 g AS/ha)	% effect on APSP (APSP; dose A 25 g AS/ha)	% effect on AVFA (AVFA; dose A 6 g AS/ha)	further results
COC(=O)Nc1ccc(C(=O)N(C)C)c(S(=O)(=O)NC(=O)Nc2nc(OC)cc(OC)n2)c1.[Na] [A7, N-(4,6-Dimethoxypyrimidin-2-ylaminocarbonyl)-2-(N,N-dimethylaminocarbonyl)-5-(N-methoxycarbonylamino)benzenesulfonamide sodium salt]	25%	40%	60%	60%	80%	90%	90%	–	–	–	–	–	–	–	–	–	–	–	–	–	Phytotoxicity or herbicidal effect in % SVFA (SVFA; dose 25 g AS/ha): 100%; Phytotoxicity or herbicidal effect in % SVFA (SVFA; dose 50 g AS/ha): 100%; Phytotoxicity or herbicidal effect in % SVFA (SVFA; dose 100 g AS/ha): 100%; Phytotoxicity or herbicidal effect in % ECCG (ECCG; dose 100 g AS/ha): 90%; Phytotoxicity or herbicidal effect in % SOHA (SOHA; dose 100 g AS/ha): 95%
COc1cc(OC)nc(NC(=O)NS(=O)(=O)c2cc(NC=O)ccc2C(=O)N(C)C)n1 [A8, N-(4,6-Dimethoxypyrimidin-2-ylaminocarbonyl)-2-(N,N-dimethylaminocarbonyl)-5-(N-formylamino)benzenesulfonamide]	–	–	–	–	–	–	–	–	–	–	–	–	–	–	–	–	–	–	–	–	Phytotoxicity or herbicidal effect in % SVFA (SVFA; dose 25 + 12 g AS/ha): 95%; Phytotoxicity or herbicidal effect in % SVFA (SVFA; dose 50 + 25 g AS/ha): 100%; Phytotoxicity or herbicidal effect in % ECCG (ECCG; dose 25 + 12 g AS/ha): 98%; Phytotoxicity or herbicidal effect in % ECCG (ECCG; dose 50 + 25 g AS/ha): 100%; Phytotoxicity or herbicidal effect in % SOHA (SOHA; dose 25 + 12 g AS/ha): 95%; Phytotoxicity or herbicidal effect in % SOHA (SOHA; dose 50 + 25 g AS/ha): 98%
CCC(=O)Nc1ccc(C(=O)N(C)C)c(S(=O)(=O)NC(=O)Nc2nc(OC)cc(OC)n2)c1.[Na] [A9, N-(4,6-Dimethoxypyrimidin-2-ylaminocarbonyl)-2-(N,N-dimethylaminocarbonyl)-5-(N-propionylamino)benzenesulfonamide sodium salt]	0%	15%	35%	99%	100%	98%	100%	–	–	–	–	–	–	–	–	–	–	–	–	–	–
COC(=O)c1ccc(CNS(C)(=O)=O)cc1S(=O)(=O)NC(=O)Nc1nc(OC)cc(OC)n1.[Na] [A10]	–	–	–	–	–	–	–	5%	15%	55%	15%	25%	30%	98%	100%	100%	80%	97%	99%	75%	% effect on AVFA (AVFA; dose A 12 g AS/ha): 85%; % effect on AVFA (AVFA; dose A 25 g AS/ha): 90%; % effect on POAN (POAN; dose A 6 g AS/ha): 85%; % effect on POAN (POAN; dose A 12 g AS/ha): 99%; % effect on POAN (POAN; dose A 25 g AS/ha): 100%
COC(=O)NCc1ccc(C(=O)OC)c(S(=O)(=O)NC(=O)Nc2nc(OC)cc(OC)n2)c1.[Na] [A11]	–	–	–	–	–	–	–	10%	25%	45%	5%	20%	45%	95%	98%	100%	85%	95%	100%	70%	% effect on AVFA (AVFA; dose A 12 g AS/ha): 90%; % effect on AVFA (AVFA; dose A 25 g AS/ha): 95%; % effect on POAN (POAN; dose A 6 g AS/ha): 90%; % effect on POAN (POAN; dose A 12 g AS/ha): 100%; % effect on POAN (POAN; dose A 25 g AS/ha): 100%
COC(=O)c1ccc(CN(C)S(C)(=O)=O)cc1S(=O)(=O)NC(=O)Nc1nc(OC)cc(OC)n1 [A12]	–	–	–	–	–	–	–	8%	15%	25%	5%	10%	10%	95%	98%	99%	85%	95%	98%	75%	% effect on AVFA (AVFA; dose A 12 g AS/ha): 85%; % effect on AVFA (AVFA; dose A 25 g AS/ha): 90%; % effect on POAN (POAN; dose A 6 g AS/ha): 85%; % effect on POAN (POAN; dose A 12 g AS/ha): 92%; % effect on POAN (POAN; dose A 25 g AS/ha): 99%
COC(=O)Nc1ccc(C(=O)N(C)C)c(S(=O)(=O)NC(=O)Nc2nc(OC)cc(OC)n2)c1 [A13, N-(4,6-Dimethoxypyrimidin-2-ylaminocarbonyl)-2-(N,N-dimethylaminocarbonyl)-5-(N-methoxycarbonylamino)benzenesulfonamide]	10%	20%	30%	99%	100%	90%	97%	–	–	–	–	–	–	–	–	–	–	–	–	–	Phytotoxicity or herbicidal effect in % SVFA (SVFA; dose 25 g AS/ha): 90%; Phytotoxicity or herbicidal effect in % SVFA (SVFA; dose 50 g AS/ha): 95%
